Data: patent publication US5221606A, “Reagent and kit for enzyme assay comprising a substrate consonant with given enzyme to be assayed” (King's College London, priority 1987, dated 1993)
Where a name gives a salt, the structure may show the parent alone.

What was measured:
carboxyesterase = experiment: substrate test with carboxyesterase; format: biochemical
Description: The serum samples were diluted by a factor of 10 prior to the assay. The substrate solution and the diluted sera were then preincubated at 37° C. in a water bath. Aliquots (0.75 ml) of the substrate solution were then pipetted into small plastic tubes (2 ml capacity), and 0.05 ml samples of the sera were added to each of the substrate aliquots and shaken vigorously to ensure adequate mixing. A blank was run by substituting water (0.05 ml) for the serum. The reaction was stopped after 10 min by the addition of the stopping buffer (0.25 ml) [prepared by dissolving DABCO (22.4 g) in water (200 ml) and adjusting the pH to 10 by the addition of a little conc. hydrochloric acid. The resulting mixture was then made up to 1000 ml with acetone]. […] [formula] where t=time of incubation in hours
Otherwise it was carried out in exactly the same ways as above

alkaline phosphatase = experiment: substrate test with alkaline phosphatase; format: biochemical
[1] = solubility in water or aqueous buffer
E. Coli β-galactosidase = E. Coli β-galactosidase (Escherichia coli, UniProt P00722); experiment: substrate test with β-galactosidase; format: biochemical
[2] = tested on: N-acetyl-β-D-glucosaminidase (NAGase); experiment: substrate test with N-acetyl-β-D-glucosaminidase; format: biochemical
Description: METHOD. The MIXTURE A is dissolved in 10 ml of distilled water to give SOLUTION A. The solution should be allowed to stand in a thermostatically controlled bath at 37° C., and then 0.75 ml of the solution is added to a series of suitable tubes of 2 ml capacity. To these tubes is added, with vigorous stirring, […] aliquots of the urines under examination, and a blank is prepared by adding 0.05 ml of distilled water rather than urine to one of the tubes. The tubes are then incubate for a set length of time (preferably 30 min), after which 0.25 ml of the STOPPING BUFFER is added to each tube and the absorption (A) at 505 nm is determined for each sample, and adjusted for the value of the blank.
The enzyme activity of the enzyme in each sample is given by the expression using and εmax =42,000. [formula] where t=time of incubation in hours

stability on storage = format: physicochemical
[3] = E. coli β-galactosidase, unit inferred

Sequence of E. Coli β-galactosidase (P00722 2-1024): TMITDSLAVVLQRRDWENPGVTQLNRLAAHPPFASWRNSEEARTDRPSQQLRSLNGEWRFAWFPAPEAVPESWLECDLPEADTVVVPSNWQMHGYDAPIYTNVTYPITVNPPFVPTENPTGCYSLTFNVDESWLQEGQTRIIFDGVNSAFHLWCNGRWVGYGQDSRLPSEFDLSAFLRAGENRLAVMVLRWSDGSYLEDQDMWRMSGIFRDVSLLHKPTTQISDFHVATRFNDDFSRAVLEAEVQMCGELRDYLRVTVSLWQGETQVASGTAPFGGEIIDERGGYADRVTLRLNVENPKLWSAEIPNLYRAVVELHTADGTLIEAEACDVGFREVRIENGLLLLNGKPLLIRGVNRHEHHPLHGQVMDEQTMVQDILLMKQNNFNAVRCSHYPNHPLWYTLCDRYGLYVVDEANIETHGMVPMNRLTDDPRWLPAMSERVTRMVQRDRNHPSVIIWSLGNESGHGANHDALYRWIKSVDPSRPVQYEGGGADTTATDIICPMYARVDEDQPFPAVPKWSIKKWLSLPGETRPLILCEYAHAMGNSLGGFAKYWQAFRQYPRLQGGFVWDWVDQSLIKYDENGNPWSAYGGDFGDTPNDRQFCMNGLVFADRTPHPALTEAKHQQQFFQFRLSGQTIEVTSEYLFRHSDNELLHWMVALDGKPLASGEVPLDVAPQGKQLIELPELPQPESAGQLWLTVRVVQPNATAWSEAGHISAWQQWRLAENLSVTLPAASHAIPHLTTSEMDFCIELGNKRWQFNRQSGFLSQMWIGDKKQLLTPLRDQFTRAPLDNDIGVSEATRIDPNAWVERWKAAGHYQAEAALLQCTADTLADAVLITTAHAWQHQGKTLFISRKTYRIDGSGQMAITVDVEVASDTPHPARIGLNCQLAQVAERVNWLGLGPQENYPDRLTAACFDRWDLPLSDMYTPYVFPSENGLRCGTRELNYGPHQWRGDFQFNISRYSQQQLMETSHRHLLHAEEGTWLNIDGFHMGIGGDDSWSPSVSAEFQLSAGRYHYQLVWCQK

Molecule: COc1cc(C=C2SC(=S)N(c3ccc(S(=O)(=O)O)cc3)C2=O)cc(OC)c1OC(=O)c1ccccc1 [14e, Potassium 5-(4-benzoyloxy-3,5-dimethoxyphenylmethylene) -2-thioxothiazolidin-4-one-3-(phenyl-4-sulphonate)]
- quality as substrate for / cleavage by carboxyesterase (carboxyesterase): hydrolysed by carboxyesterase

Molecule: COc1cc(N2C(=O)C(=Cc3cc(OC)c(OP(=O)(O)O)c(OC)c3)SC2=S)cc(OC)c1OC [15f, 2-Thioxo-3-(3,4,5-trimethoxyphenyl)-5-(3,5-dimethoxy-4-phosphoroyloxyphenylmethylene)-thiazolidin-4-one]
- quality as substrate for / hydrolysis by alkaline phosphatase (alkaline phosphatase): hydrolysed by alkaline phosphatase
- solubility in alkaline buffers ([1]; alkaline buffers (pH 8 etc.)): moderately soluble

Molecule: COc1cc(/C=C/c2ccc3ccccc3[n+]2C)cc(OC)c1OP(=O)(O)O [22f, 2-[2-(4-phosphoroyloxy-3,5-dimethoxyphenyl)-vinyl]-1-methylquinolinium iodide]
- quality as substrate for / hydrolysis by alkaline phosphatase (alkaline phosphatase): good substrate
- % of vmax achieved (alkaline phosphatase; at a concentration of 0.5 mM): 42%
- Km (alkaline phosphatase; phosphatase): 680 µM
- solubility in water ([1]; water): very soluble in water

Molecule: COc1cc(C=C2C(=O)N(c3ccc(S(=O)(=O)O)cc3)N=C2C)cc(OC)c1OC(=O)c1ccccc1 [29e, Potassium 1-(benzene-4-sulfonate)-4-(4-Benzolyloxy-3,5-dimethoxyphenylmethylene)-3-methyl-5-pyrazalone]
- quality as substrate for / cleavage by carboxyesterase (carboxyesterase): substrate for carboxyesterase

Molecule: CCC[n+]1ccc(/C=C/c2cc(OC)c(OP(=O)([O-])O)c(OC)c2)c2ccccc21 [25f, 4-[2-(4-Phosphoroyloxy-3,5-dimethoxyphenyl)-vinyl]-1-propylquinolinium]
- quality as substrate for / hydrolysis by alkaline phosphatase (alkaline phosphatase): excellent substrate
- Km (alkaline phosphatase; alkaline phosphatase, unit inferred): 176 µM
- % of vmax achieved (alkaline phosphatase; at a concentration of 1 mM): 86%
- solubility in water ([1]; water): water soluble

Molecule: COc1cc(C=C2SC(=S)N(C)C2=O)cc(OC)c1OP(=O)(O)O [16f, 5-(4-Phosphoroyloxy-3,5-dimethoxyphenylmethylene)-2-thioxo-3-methylthiazolidine-4-one]
- Km (alkaline phosphatase; phosphatase): 330 µM

Molecule: COc1cc(/C=C/c2sc3ccccc3[n+]2C)ccc1O[C@@H]1O[C@H](CO)[C@H](O)[C@H](O)[C@H]1O [26c, 2-{2-[4-(β-D-Galactopyranosyloxy)-3-methoxyphenyl]-vinyl}-3-methylbenzothiazolium tosylate]
- concentration above which substrate inhibition starts to show (E. Coli β-galactosidase): above 0.7 mM
- pH optimum (E. Coli β-galactosidase): 6.5
- quality as substrate for E. Coli β-galactosidase (E. Coli β-galactosidase): reacted to give an intense violet-red solution
- % of vmax achieved (E. Coli β-galactosidase; at a concentration of 1 mM): 95%
- Km (E. Coli β-galactosidase; β-D-galactosidase from E. Coli): 230 µM
- solubility in water ([1]; water): very soluble in water

Molecule: COc1cc(/C=C/c2cc[n+](C)c3ccccc23)ccc1O[C@@H]1O[C@H](CO)[C@@H](O)[C@H](O)[C@H]1NC(C)=O [23b, 4-{2-[4-(2-acetamido-2-deoxy-β-D-glucopyranosyloxy)-3-methoxyphenyl]-vinyl}-1-methylquinolinium iodide]
- quality as substrate for NAGase [2]: fair substrate
- solubility in water ([1]; water): good water solubility

Molecule: CCC(=O)Oc1c(OC)cc(C=C2SC(=S)N(c3ccc(C(=O)O)cc3)C2=O)cc1OC [13d, n=1, 3-(4-carboxyphenyl)-5-(3,5-dimethoxy-4-propanoyloxyphenylmethylene)-2-thioxothiazolidin-4-one]
- quality as substrate for / cleavage by carboxyesterase (carboxyesterase): reacted with carboxyesterase

Molecule: COc1cc(C=C2SC(=S)N(CC(=O)O)C2=O)ccc1O[C@@H]1O[C@H](CO)[C@@H](O)[C@H](O)[C@H]1NC(C)=O [4b]
- quality as substrate for NAGase [2]: excellent substrate
- Km ([2]; substrate for NAGase): 980 µM
- solubility ([1]; water): ≤ 10000 µM

Molecule: COc1cc(/C=C/c2cc[n+](C)cc2)ccc1O[C@@H]1O[C@H](CO)[C@H](O)[C@H](O)[C@H]1O [19c]
- quality as substrate for E. Coli β-galactosidase (E. Coli β-galactosidase): substrate
- solubility in water ([1]; water): fair solubility

Molecule: 2-[2-(4-Benzoyloxy-3-methoxyphenyl)-vinyl-1-methylquinolinium iodide [21e]
- quality as substrate for / cleavage by carboxyesterase (carboxyesterase): readily cleaved

Molecule: CCC(=O)Oc1c(OC)cc(C=C2C(=O)NC(=S)NC2=O)cc1OC [28d, n=1, 4,6-dioxo-5-(4-propanoyloxy-3,5-dimethoxyphenylmethylene)-2-thioxo-1,3-diazacyclohexane]
- quality as substrate for / cleavage by carboxyesterase (carboxyesterase): poor-to-moderate substrate
- solubility in water ([1]; water): not particularly good

Molecule: COc1cc(C=CC=C2SC(=S)N(CC(=O)O)C2=O)ccc1OC(C)=O [compound 30, Piperidinium 5-[3-(4'-ethanoyloxy-3'-methoxyphenyl)-prop-2-enylidene]-2-thioxothiazolidin-4-one-3-ethanoate]
- quality as substrate for / cleavage by carboxyesterase (carboxyesterase): hydrolysed

Molecule: COc1cc(C=C2SC(=S)N(CC(=O)O)C2=O)ccc1O[C@@H]1O[C@H](CO)[C@H](O)[C@H](O)[C@H]1O [4c, Ammonium 5-[4-(β-D-galactopyranosyloxy)-3-methoxyphenyl-methylene]-2-thioxothiazolidin-4-one-3-ethanoate]
- quality as substrate for E. Coli β-galactosidase (E. Coli β-galactosidase): very good substrate
- solubility in water ([1]; water): easily soluble in water

Molecule: COc1cc(/C=C/c2cc[n+](C)c3ccccc23)cc(OC)c1O[C@@H]1O[C@H](CO)[C@H](O)[C@H](O)[C@H]1O [24c, 4-{2-[4-(β-D-Galactopyranosyloxy)-3,5-dimethoxyphenyl]-vinyl}-1-methylquinolinium iodide]
- quality as substrate for E. Coli β-galactosidase (E. Coli β-galactosidase): good a substrate
- solubility in water ([1]; water): easily soluble in water

Molecule: CCN1C(=O)C(=Cc2ccc(OP(=O)(O)O)c(OC)c2)C(=O)N(CC)C1=S [27f]
- quality as substrate for / hydrolysis by alkaline phosphatase (alkaline phosphatase): cleaved by alkaline phosphatase
- solubility in water ([1]; water): good solubility

Molecule: COc1cc(/C=C/c2ccc3ccccc3[n+]2C)ccc1OP(=O)(O)O [21f, 2-[2-(4-phosphoroyloxy-3-methoxyphenyl)-vinyl]-1-methylquinolinium iodide]
- quality as substrate for / hydrolysis by alkaline phosphatase (alkaline phosphatase): reacted rapidly
- solubility in water ([1]; water): very soluble in water
- stability in storage (stability on storage): rather unstable in storage

Molecule: COc1cc(/C=C/c2ccc3ccccc3[n+]2C)ccc1O[C@@H]1O[C@H](CO)[C@@H](O)[C@H](O)[C@H]1NC(C)=O [21b, 2-{2-[4-(2-Acetamido-2-deoxy-β-D-glucopyranosyloxy)-3-methoxyphenyl]-vinyl}-1-methylquinolinium iodide]
- quality as substrate for NAGase [2]: substrate

Molecule: COc1cc(C=C2SC(=S)N(CC(=O)O)C2=O)cc(OC)c1O[C@@H]1O[C@H](CO)[C@@H](O)[C@H](O)[C@H]1NC(C)=O [11b]
- quality as substrate for NAGase [2]: fair substrate
- solubility in water ([1]; water): soluble in water

Molecule: COc1cc(C=C2SC(=S)N(C)C2=O)ccc1OP(=O)(O)O [9F, 5-(4-Phosphoroyloxy-3-methoxyphenylmethylene)-2-thioxo-3-methylthiazolidine-4-one]
- quality as substrate for / hydrolysis by alkaline phosphatase (alkaline phosphatase): hydrolysed readily
- solubility in water ([1]; water): very soluble in water

Molecule: COc1cc(/C=C/c2ccc3ccccc3[n+]2C)cc(OC)c1O[C@@H]1O[C@H](CO)[C@H](O)[C@H](O)[C@H]1O [22c, 2-{2-[4-(β-D-Galactopyranosyloxy)-3,5-dimethoxyphenyl]-vinyl}-1-methylquinolinium iodide]
- quality as substrate for E. Coli β-galactosidase (E. Coli β-galactosidase): good a substrate
- solubility in water ([1]; water): easily soluble in water

Molecule: CCC(=O)Oc1ccc(C=C2SC(=S)NC2=O)cc1OC [3d, n=1, 5-(4-propanoyloxy-3-methoxyphenylmethylene)-2-thioxothiazolidin-4-one]
- quality as substrate for / cleavage by carboxyesterase (carboxyesterase): cleaved by carboxyesterase
- solubility in water ([1]; water): slightly soluble in water

Molecule: COc1cc(/C=C/c2cc[n+](C)c3ccccc23)ccc1O[C@@H]1O[C@H](CO)[C@H](O)[C@H](O)[C@H]1O [23c, 4-{2-[4-(β-D-Galactopyranosyloxy)-3-methoxyphenyl]-vinyl}-1-methylquinolinium iodide]
- quality as substrate for E. Coli β-galactosidase (E. Coli β-galactosidase): excellent substrate
- Km (E. Coli β-galactosidase; [3]): 62 µM
- % of vmax achieved (E. Coli β-galactosidase; at a concentration of 0.5 mM): 95%
- substrate inhibition (E. Coli β-galactosidase; at concentrations higher than 0.5 mM): slight substrate inhibition
- solubility in water ([1]; water): good water solubility

Molecule: COc1cc(/C=C/c2ccc3ccccc3[n+]2C)ccc1O[C@@H]1O[C@H](CO)[C@H](O)[C@H](O)[C@H]1O [21c, 2-{2-[4-(β-D-Galactopyranosyloxy)-3-methoxyphenyl]-vinyl}-1-methylquinolinium iodide]
- quality as substrate for E. Coli β-galactosidase (E. Coli β-galactosidase): excellent substrate
- Km (E. Coli β-galactosidase; [3]): ~200 µM
- % of vmax achieved (E. Coli β-galactosidase; at a concentration of 0.5 mM): 90%
- solubility in water ([1]; water): very good water solubility

Molecule: COc1cc(C=C2SC(=S)N(CC(=O)O)C2=O)cc(OC)c1OC(=O)c1ccccc1 [11e]
- quality as substrate for / cleavage by carboxyesterase (carboxyesterase): excellent substrate
